Results: ChEMBL document CHEMBL1147119 (2007)
≈ marks a conversion by molar mass, not a printed value. Calls of active or inactive are those of the source. No cut-off for these calls is given here.

Legend:
Bacillus anthracis = assay: Antimicrobial activity against Bacillus anthracis Ames; format: functional
[1] = Cmax in BALB/c mouse at 25 mg/kg, ip; format: ADME, organism-based; conditions: in vivo
[2] = Cmax in BALB/c mouse at 50 mg/kg, ip; format: ADME, organism-based; conditions: in vivo
[3] = Cmax in BALB/c mouse at 100 mg/kg, ip; format: ADME, organism-based; conditions: in vivo
[4] = AUC (0-6h) in BALB/c mouse at 25 mg/kg, ip; format: ADME, organism-based; conditions: plasma
[5] = AUC (0-6h) in BALB/c mouse at 50 mg/kg, ip; format: ADME, organism-based; conditions: plasma
[6] = AUC (0-6h) in BALB/c mouse at 100 mg/kg, ip; format: ADME, organism-based; conditions: plasma
[7] = Trough level in BALB/c mouse at 25 mg/kg, ip after 6 hrs; format: ADME, organism-based; conditions: in vivo
[8] = Trough level in BALB/c mouse at 50 mg/kg, ip after 6 hrs; format: ADME, organism-based; conditions: in vivo
[9] = Trough level in BALB/c mouse at 100 mg/kg, ip after 6 hrs; format: ADME, organism-based; conditions: in vivo
Mus musculus [10] = assay: Survival in BALB/c mouse infected with Bacillus anthracis Ames at 40 mg/kg every 6 hrs for 14 days; format: functional, organism-based; parameters: dose 40 mg/kg
Mus musculus [11] = assay: Survival in BALB/c mouse infected with Bacillus anthracis Ames at 30 mg/kg, ip every 12 hrs for 14 days; format: functional, organism-based; parameters: dose 30 mg/kg
Mus musculus [12] = assay: Survival of Bacillus anthracis Ames infected BALB/c mouse at 30 mg/kg, ip every 12 hrs for 14 days administered 36 hrs after infection; format: functional
Mus musculus [13] = assay: Survival of Bacillus anthracis Ames infected BALB/c mouse at 30 mg/kg, ip every 12 hrs for 14 days administered 48 hrs after infection; format: functional

SMILES	MIC (Bacillus anthracis)	Cmax [1]	Cmax [2]	Cmax [3]	AUC(0-t) at 6 h [4]	AUC(0-t) at 6 h [5]	AUC(0-t) at 6 h [6]	concentration at 6 h [7]	concentration at 6 h [8]	concentration at 6 h [9]	Activity (Mus musculus [10])	Activity (Mus musculus [11])	survival at 30 mg/kg (Mus musculus [12])	survival at 30 mg/kg (Mus musculus [13])
C[C@H]1c2cccc(O)c2C(=O)C2=C(O)[C@]3(O)C(=O)C(C(N)=O)=C(O)[C@@H](N(C)C)[C@@H]3[C@@H](O)[C@@H]21.O [DOXYCYCLINE]	0.03 µg/mL	4000 ng/mL	6700 ng/mL	12000 ng/mL	13700 ng·h/mL	23400 ng·h/mL	57200 ng·h/mL	1330 ng/mL	1670 ng/mL	6000 ng/mL	Active	–	–	–
O=C(O)c1cn(C2CC2)c2cc(N3CCNCC3)c(F)cc2c1=O [CIPROFLOXACIN]	0.25 µg/mL (≈ 0.754 µM)	6600 ng/mL	10700 ng/mL	20000 ng/mL	6600 ng·h/mL	14100 ng·h/mL	37700 ng·h/mL	1000 ng/mL	1830 ng/mL	1670 ng/mL	–	Active	80%	80%
